Two compounds from US10780101B2, “Amide derivatives of squalamine for the treatment of infections” (VIRBAC, priority 2016, dated 2020) can be followed below.

One assay concerns S. aureus Animal (340). Description: MIC determination, S. aureus animal (340). The assay is classed as cell-based. The following applies: Staphylococcus aureus; Gram-positive; Mueller-Hinton medium, 24 h at 37° C. Summed up:
(§1)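 Broth microdilution in Mueller-Hinton medium; compounds from 5 mg/mL stock in DMSO/methanol (50/50), twofold serial dilutions, inoculum adjusted to OD 0.01. Plates incubated 24 h at 37 °C, humid atmosphere; OD read at 620 nm to derive MIC, duplicates.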

The test system of the next assay is C. albicans. Description: Antifungal activity, cascade microdilution. It is filed as cell-based. As to conditions: Candida albicans, 24 h, read-out: IC50 (μg/mL) C. albicans. (Broth dilution looks for growth in wells or tubes with falling amounts of substance.)
Another assay has as its system CHO-K1 cells. Description: WST1 cytotoxicity test on CHO-K1 cells. It is filed as cell-based, Chinese hamster. As to conditions: Cricetulus griseus. Summed up:
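CHO-K1 cells pre-grown 24 h, then exposed to increasing compound concentrations in duplicate for 24 h at 37° C, 5% CO2. Viability read after 20 min with 10% WST-1 in PBS at 450 nm; IC50 from nonlinear regression as concentration cutting viability 50%.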
In general terms: Tetrazolium assays rely on reduction of a dye to a coloured formazan, in cell work by metabolically active cells.

For assay [1], the system named is S. intermedius Animal (1051997). Kind of assay: MIC determination, S. intermedius animal (1051997). It is filed as cell-based. The following applies: Staphylococcus intermedius; Gram-positive; Mueller-Hinton medium, 24 h at 37° C. Summed up: as §1
Assay [2] has as its system S. aureus Human ATCC 25923. Description: MIC determination, S. aureus human ATCC 25923. It is filed as cell-based. As to conditions: Staphylococcus aureus, ATCC25923; Gram-positive; Mueller-Hinton medium, 24 h at 37° C. The gist of the method:
as §1

Assay [3] deals with P. aeruginosa (1051575). Description: Potentiation of doxycycline activity (combination MIC). It is filed as cell-based, Pseudomonas aeruginosa. As to conditions: in presence of doxycycline 2 μg/mL; 24 hours at 37° C.
Assay [4] concerns P. aeruginosa Human ATCC 27853. Description: MIC determination, P. aeruginosa human ATCC 27853. The following applies: Pseudomonas aeruginosa, ATCC27853; Gram-negative; Mueller-Hinton medium, 24 h at 37° C. It is filed as cell-based. The gist of the method:
as §1

The next assay has as its system E. coli Animal (1956). Kind of assay: MIC determination, E. coli animal (1956). It is filed as cell-based. As to conditions: Escherichia coli; Gram-negative; Mueller-Hinton medium, 24 h at 37° C. Summed up:
as §1

Assay [5] relates to P. aeruginosa (1051575). Kind of assay: Potentiation of erythromycin activity (combination MIC). As to conditions: erythromycin 2 μg/mL; concentration of compound required to restore antibiotic activity. The assay is classed as cell-based, Pseudomonas aeruginosa. Here is the method:
(§2) This method requires the use of a 96-well plate: 100 μL of a liquid culture medium are placed in each well and then seeded with the microbial suspension prepared previously. The required volume to be seeded is calculated for an OD of 0.01, which corresponds to about 5×10^6 bacteria in each well. In this plate, the first line corresponds to a negative control (200 μL of sterile culture medium in each well), the second line corresponds to a positive control (100 μL of sterile culture medium+100 μL of the bacterial suspension), and the third line contains 192 μL of culture medium; 8 μL of compound of formula (I) to be tested are placed in each well. Thereafter, a cascade dilution is performed from this line. L of a doxycycline solution (1 mg dissolved in 20 mL) are then added to each well of lines 3 to 8 to obtain a final antibiotic concentration of 2 μg/mL. 92 μL of bacterial suspension are then added to lines 3 to 8. The results are read (the determination of the MIC (2 μg/mL of doxycycline) in the presence of X g/mL of compound of formula (I)) after 24 hours of incubation at 37° C. under a humid atmosphere. After 24 hours of incubation at 37° C., 40 μL of nitro tetrazolium iodide are added to each well to reveal the presence of live bacteria by staining the medium pink.
The procedure is identical to that indicated in Example 5 above. 8 μL of an antibiotic solution under consideration (1 mg dissolved in 20 mL) are added to obtain a final antibiotic concentration of 2 μg/mL instead of 8 μL of a doxycycline solution.
(§3) The results are given in table V. They indicate the concentration of compound of formula (I) required to be able to restore the activity of the antibiotic under consideration.

For assay [6], the system named is P. aeruginosa Animal (1051575). Kind of assay: MIC determination, P. aeruginosa animal (1051575). It is filed as cell-based. The following applies: Pseudomonas aeruginosa; Gram-negative; Mueller-Hinton medium, 24 h at 37° C. The gist of the method: as §1
In assay [7] the test system is P. aeruginosa (1051575). Description: Potentiation of chloramphenicol activity (combination MIC). The assay is classed as cell-based, Pseudomonas aeruginosa. The following applies: chloramphenicol 2 μg/mL; concentration of compound required to restore antibiotic activity. On the procedure: as §2, with “L of a doxycycline solution (1 mg dissolved in 20 mL) are then added to each well of lines 3 to 8 to obtain a final antibiotic concentration of 2 μg/mL.” left out
The procedure is identical to that indicated in Example 5 above. […]
as §3

The next assay deals with E. coli Human ATCC 28922. Description: MIC determination, E. coli human ATCC 28922. The assay is classed as cell-based. The following applies: Escherichia coli, ATCC28922; Gram-negative; Mueller-Hinton medium, 24 h at 37° C. The gist of the method: as §1
Another assay relates to P. aeruginosa (PAO1). Description: MIC of doxycycline alone on PAO1. It is filed as cell-based. The following applies: Pseudomonas aeruginosa, Gram-negative strain P. aeruginosa (PAO1). On the procedure: On the Gram-negative strain of P. aeruginosa (PAO1), doxycycline has an MIC of 40 μg/mL.

≈ marks a conversion by molar mass, not a printed value. Read-outs that look alike come from different tables or passages of the source.

A word on the MIC: it is the lowest concentration found to suppress growth.

As to `CCN(CC)C(=O)CC[C@@H](C)[C@H]1CCC2C3C(CC[C@@]21C)[C@@]1(C)CC[C@H](NCCCN(CCCN)CCCN)CC1C[C@H]3O` (stereo partly drawn) [(44), 3β-(tris(3-aminopropyl)amine)-N,N-diethylchenodeoxycholamide], the MIC was found to be 4 µg/mL (≈ 6.47 µM) with S. aureus Animal (340); 2 µg/mL (≈ 3.24 µM) in [1]; 2 µg/mL (≈ 3.24 µM) in [2]; 60 µg/mL (≈ 97.1 µM) in assay [4]; 30 µg/mL (≈ 48.5 µM) against E. coli Animal (1956); 60 µg/mL (≈ 97.1 µM) in assay [6]. In addition, in the assay on E. coli Human ATCC 28922, it took 15 µg/mL (≈ 24.3 µM) to inhibit growth (MIC). Besides, the IC50 in the assay with C. albicans is 0.5 µg/mL (≈ 0.809 µM); with CHO-K1 cells (CHO-K1, 24 h, read-out: IC50 (μg/mL) CHO) it was 75 µg/mL (≈ 121 µM); in the assay on CHO-K1 cells (CHO-K1, read-out: IC50 (μg/mL) CHO) it was 75 µg/mL (≈ 121 µM). Moreover, the “MIC - P. aeruginosa (1051575): content of compound of formula (I) to restore the doxycycline activity (at 2 μg/mL)” value in the assay with P. aeruginosa (1051575) [3] is 2 µg/mL. Moreover, in the assay with P. aeruginosa (1051575) [5], the “MIC P. aeruginosa (1051575) compound + erythromycin” value was 8 µg/mL. Further, the “MIC P. aeruginosa (1051575) compound + chloramphenicol” value in the assay on P. aeruginosa (1051575) [7] came to 4 µg/mL.
For the compound `C[C@H]1c2cccc(O)c2C(=O)C2=C(O)[C@]3(O)C(=O)C(C(N)=O)=C(O)[C@@H](N(C)C)[C@@H]3[C@@H](O)[C@@H]21` [doxycycline], in the assay with P. aeruginosa (PAO1), the MIC was 40 µg/mL.
